Where two headings read alike, the source gives them in different places.
How the values were obtained:
[1] = test system: panel of breast cancer cell lines; experiment: Colony formation assay, IC50, panel of breast cancer cell lines; format: cell-based; conditions: for association of pattern of sensitivity across cell line panel with relative expression of BRCA1/BLM and BLM/Actin: panel of breast cancer cell lines
Procedure: Three cell lines (BT549, HCC1143, and HCC38) are normal genotype for BRCA1 and have high BLM/Actin and low ratio of BRCA1/BLM. Two cell lines (MDA231 and MDA453) are also normal genotype for BRCA1 but have relatively higher expression of BRCA1/BLM and lower BLM/actin. HCC1937 and MDA436 have homozygous mutation in BRCA1 and undetectable BRCA1/BLM, and higher expression of BLM/Actin.
A panel of cell lines was evaluated for sensitivity to various treatments as indicated by colony formation assay and calculation of IC50 values.

[2] = test system: MDA231 breast cancer cells; experiment: Colony formation assay, IC50 for cisplatin, MDA231 cells with BLM overexpression; format: cell-based
Procedure: These cells were used in experiments to assess the effect of increasing the expression of BLM. A lentivirus expression vector for HA-tagged BLM cDNA or a control vector was transfected into MDA231 cells. BLM expression was assessed by Western blot analysis for endogenous BLM or for the HA-tag in cells treated with control vector, BLM cDNA, BLM cDNA and a small molecule inhibitor of BLM helicase (BLMi), or BLM cDNA and BLM siRNA.
IC50 for cisplatin was determined by colony formation assay in MDA231 breast cancer cells treated with control vector, BLM cDNA vector, BLM cDNA plus the BLM small molecule inhibitor, and BLM cDNA plus BLM siRNA. […] Consistent with the other findings, this effect was reversed by treatment with the BLM helicase inhibitor and by siRNA knockdown of BLM.

[3] = test system: triple negative breast cancer; conditions: 28 TNBC patients, neoadjuvant cisplatin as single agent (Silver et al., JCO 2010); cited from earlier work
H2AX and 53BP1 foci = experiment: Immunofluorescence assay for markers of DNA damage (H2Ax-p and 53BP1-p) in MDA231 cells; format: cell-based; conditions: cisplatin after 4 hours, compared with no cisplatin treatment
Procedure: We also performed an immunofluorescence assay for markers of DNA damage (H2Ax-p and 53BP1-p) in MDA231 cells treated with control vector, BLM cDNA, BLM cDNA+BLM inhibitor, or BLM cDNA+BLM siRNA. Overexpression of BLM results in increased H2AX and 53BP1 foci in the absence of any cisplatin treatment indicating spontaneous DNA damage. This effect is even greater in cells treated with cisplatin after 4 hours. The quantitation of foci is shown in the lower bar graphs. The addition of a small molecule BLM helicase inhibitor (Bi) or siRNA to BLM (si) blocks the effect of BLM overexpression on DNA damage foci.

[4] = test system: triple negative breast cancer; conditions: TNBC patients, neoadjuvant cisplatin in combination with bevacizumab; 44 patients completed therapy (Ryan et al., JCO 2009); cited from earlier work
[5] = test system: BT549 breast cancer cells; experiment: Colony formation assay, IC50, BT549 cells treated with siRNAs to BLM or FANCI; format: cell-based; conditions: versus scramble control
Procedure: We further treated BT549 breast cancer cells, with inherent high levels of BLM and FANCI were treated with gene-specific siRNAs to BLM or FANCI or with a scramble control.

[6] = two BRCA1 mutated cell lines (HCC1937, MDA436) and three cell lines with low BRCA1/BLM and high BLM/actin (BT549, HCC1143, HCC38)
[7] = two cell lines with low BLM and high BRCA1/BLM (MDA231, MDA453)

SMILES	association of pattern of sensitivity across cell line panel with relative expression of BRCA1/BLM and BLM/Actin [1]	sensitivity by colony formation assay (IC50) [1, 6]	sensitivity by colony formation assay (IC50) [1, 7]	sensitivity of MDA231 cells ([2]; MDA231 cells with low levels of BLM)	effect of overexpression of BLM on IC50 for cisplatin ([2]; MDA231 cells, BLM cDNA vector versus control vector)	patients who achieved at least 90% reduction in tumor size [3] [%]	H2AX and 53BP1 foci in BLM overexpressing cells (H2AX and 53BP1 foci)	patients who achieved at least 90% reduction in tumor size [4] [%]	effect of siRNA knockdown of either BLM or FANCI on IC50 [5]
O=C(c1cc(Cc2n[nH]c(=O)c3ccccc23)ccc1F)N1CCN(C(=O)C2CC2)CC1 [Olaparib]	associated	greater sensitivity	relatively resistant	–	–	–	–	–	–
N.N.[Cl][Pt][Cl] [cisplatin, cis-diamminedichloroplatinum]	associated	greater sensitivity	relatively resistant	relative resistance	decrease in the IC50 (greater sensitivity)	36	even greater	39	increased IC50 (greater resistance)
CC(=O)O[C@H]1C(=O)[C@@]2(C)[C@H]([C@H](OC(=O)c3ccccc3)[C@]3(O)C[C@H](OC(=O)[C@H](O)[C@@H](NC(=O)c4ccccc4)c4ccccc4)C(C)=C1C3(C)C)[C@]1(OC(C)=O)CO[C@@H]1C[C@@H]2O [Paclitaxel]	no apparent association	–	–	–	–	–	–	–	no significant effect
